SMILES strings stand for the structures. The source made the active and inactive calls.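 The calls were made as follows: active = maximum inhibition above 50% at any tested concentration, with a dose response curve fitted; inactive = no inhibition at any concentration or no dose response curve.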

The first assay deals with TRPC4 (transient receptor potential cation channel C4), mouse. The experiment in a line: TRPC4 channel inhibitors, SAR follow-up, cell-based, concentration-response (AID 652179). As to conditions: HEK293 TRPC4/mu-opioid cells, Fluo-4 calcium fluorescence ratio.
As to `Cc1cc(N2CCC(F)CC2)nc2ccccc12`, the concentration for half-maximal inhibition (IC50) is 10.2 µM. As for `Cc1cc(N2CCCCC2)nc2ccccc12`, the concentration for half-maximal inhibition (IC50) was 1.53 µM. With `Cc1cc(N2CCC(F)(F)CC2)nc2ccccc12`, the concentration for half-maximal inhibition (IC50) was 10.6 µM. The same measure, in the same setting: for `c1ccc2nc(N3CCCCC3)ccc2c1` the value was 4.61 µM; for `Cc1cc(N2CCCC(F)C2)nc2ccccc12` (stereo unspecified), 12.6 µM; for `C[C@H]1CCCN1c1ccc2ccccc2n1`, 14.9 µM.

The same assay, now with this note: HEK293 TRPC4/mu-opioid cells, Fluo-4 calcium fluorescence ratio; at 20 µM (top of the series).
On to `Cc1cc(N2CCC(O)CC2)nc2ccccc12`, for which the “fluorescence ratio, lower = inhibition” value is “inactive”. `OC1CCN(c2ccc3ccccc3n2)CC1`: the “fluorescence ratio, lower = inhibition” value was “inactive”. With `Cc1cc(-n2ccnc2)nc2ccccc12`, the “fluorescence ratio, lower = inhibition” value is “inactive”. Turning to `OC1CCN(c2ccc3ccccc3n2)C1` (stereo unspecified), the “fluorescence ratio, lower = inhibition” value is “inactive”. For the molecule `Cc1cc(N2CCC(O)C2)nc2ccccc12` (stereo unspecified), the “fluorescence ratio, lower = inhibition” value is “inactive”. Still for that read-out and setting: for `FC1CCCN(c2ccc3ccccc3n2)C1` (stereo unspecified) the value was “inactive”; for `Cc1cc(N(C)C)nc2ccccc12`, “inactive”; for `OC1CCCN(c2ccc3ccccc3n2)C1` (stereo unspecified), “inactive”.

On to `c1ccc2nc(N3CCCC3)ccc2c1`, for which the “fluorescence ratio, lower = inhibition” value was “inactive”. Still for that read-out and setting: with `FC1(F)CCN(c2ccc3ccccc3n2)CC1` the entry was “inactive”; with `O=C1CCN(c2ccc3ccccc3n2)CC1`, “inactive”; with `FC1CCN(c2ccc3ccccc3n2)CC1`, “inactive”. `Cc1cc(-n2cccn2)nc2ccccc12`: the “fluorescence ratio, lower = inhibition” value is “inactive”. Take `Cc1cc(N2CCC(=O)CC2)nc2ccccc12`: the “fluorescence ratio, lower = inhibition” value is “inactive”. On the same count and under the same terms, with `Cc1cc(-n2cccc2)nc2ccccc12` the entry was “inactive”.

These data come from PubChem BioAssay AID652179 (Johns Hopkins Ion Channel Center, 2013).
